Test results: US20150231199A1, “PEPTIDES AND THEIR USES” (priority 2012, published 2015)
In brackets after ≈: the same amount, converted by molar mass. Positions of bridges follow the written chain, without caps; N, C: chain ends. Residues, ends and D or L forms follow the SMILES beside them. Chains are numbered I, II in the order given. *: point of attachment. Lauroyl = CCCCCCCCCCCC(=O)*; Decanoyl = CCCCCCCCCC(=O)*; Octanoyl = CCCCCCCC(=O)*; Hexanoyl = CCCCCC(=O)*; Butyryl = CCCC(=O)*

Columns and labels:
[1] = system: Klebsiella pneumoniae DM4299; format: cell-based
Method: (§1) V2-dimer and all lipopeptides (FIG. 1A) used in this study were purchased from Mimotopes. All peptides were prepared by dissolving in sterile water to make 1000 μg/mL stock solutions. Minimum Inhibitory Concentration (MIC) determination was carried out in Mueller Hinton Broth (MHB) using the broth macro-dilution method as described by the Clinical and Laboratory Standards Institute (CLSI). Then, cation-adjusted MHB (CA-MHB) was used to prepare serial two fold dilutions of the compounds in test tubes. The concentration of the inoculums suspension was also adjusted to approximately 5×10^5 Colony Forming Units (CFU)/mL using MHB. Bacteria were incubated with the compounds for 24 hours at 35° C. prior to reading. In this study, Gram-positive strains used were Staphylococcus aureus DM4001 and Methicillin-resistant Staphylococcus aureus (MRSA) DM9808. Gram-negative strains used were Klebsiella pneumoniae DM4299, Pseudomonas aeruginosa ATCC23155 and Escherichia coli ATCC27922.

Pseudomonas aeruginosa = format: cell-based
Method: as §1
(§2) Methods used are as described in Example 1 above.

Staphylococcus aureus = format: cell-based
Method: as §1, §2

[2] = system: Methicillin-resistant Staphylococcus aureus (MRSA); format: cell-based
Method: as §1, §2

[3] = system: red blood cells (RBCs) of New Zealand white rabbits; assay: in vitro; format: cell-based, rabbit; details: red cells of rabbit, 1 h
Method: Fresh red blood cells (RBCs) of New Zealand white rabbits were used for this experiment. The RBCs obtained were centrifuged at 3000 rpm for 10 min. Supernatant was removed and washed twice with sterile PBS Buffer (20 mM, 100 mM NaCl, pH 7). The RBCs were further diluted to 8% stock solution in PBS. Peptides were dissolved in PBS with desired stock concentrations. When compounds were mixed with RBCs, desired concentration of 4% RBCs was obtained. For C14V2D and C16V2D, they were dissolved in Dimethylformamide ([…]; DMF) with desired stock concentrations. When compounds were mixed with RBCs, desired concentration of 4% RBCs and 0.5% DMF was obtained. DMF concentration of <1% was used as it had negligible hemolytic activity on RBCs. The mixtures were added to 1.5 mL centrifuge tubes and incubated at 37° C. for 1 h. After incubation, the blood was centrifuged at 3000 rpm for 3 min at 4° C. 100 μL of the supernatant was transferred into transparent 96-well plate. The absorbance was measured at 576 nm using a microplate reader (TECAN Infinite 200M Pro). 2% Triton X-100 was used as positive control. PBS was used as negative controls. The amount of hemoglobin released was calculated using the following equation: […]

[4] = system: Escherichia coli ATCC27922; format: cell-based
Method: as §1

Row | Structure (SMILES) | MIC [1] [µM] | MIC (Pseudomonas aeruginosa) [µM] | MIC (Staphylococcus aureus) [µM] | MIC [2] [µM] | HC10 [3] [µg/mL] | MIC [4] [µM]
1 | CC(=O)N[C@@H](CCCNC(=N)N)C(=O)NCC(=O)N[C@@H](CCCNC(=N)N)C(=O)N[C@@H](CCCCN)C(=O)NCC(=O)NCC(=O)N[C@@H](CCCNC(=N)N)C(=O)N[C@@H](CCCNC(=N)N)C(=O)NCCCC[C@H](NC(=O)[C@H](CCCNC(=N)N)NC(=O)[C@H](CCCNC(=N)N)NC(=O)CNC(=O)CNC(=O)[C@H](CCCCN)NC(=O)[C@H](CCCNC(=N)N)NC(=O)CNC(=O)[C@H](CCCNC(=N)N)NC(C)=O)C(=O)N[C@@H](CCCCN)C(=O)O [Peptide C2-G2D, (CH3—CO—NH—RGRKGGRR)2KK] (I: Ac-RGRKGGRRKK-OH / II: Ac-RGRKGGRR; amide I:9-II:C; N-terminus and C-terminus assumed) | 5.66 (≈ 12.5 µg/mL) | 2.83 (≈ 6.24 µg/mL) | 5.52 (≈ 12.2 µg/mL) | 5.66 (≈ 12.5 µg/mL) |  | 
2 | CC(=O)N[C@@H](CCCNC(=N)N)C(=O)NCC(=O)N[C@@H](CCCNC(=N)N)C(=O)N[C@@H](CCCCN)C(=O)N[C@H](C(=O)N[C@H](C(=O)N[C@@H](CCCNC(=N)N)C(=O)N[C@@H](CCCNC(=N)N)C(=O)NCCCC[C@H](NC(=O)[C@H](CCCNC(=N)N)NC(=O)[C@H](CCCNC(=N)N)NC(=O)[C@@H](NC(=O)[C@@H](NC(=O)[C@H](CCCCN)NC(=O)[C@H](CCCNC(=N)N)NC(=O)CNC(=O)[C@H](CCCNC(=N)N)NC(C)=O)C(C)C)C(C)C)C(=O)N[C@@H](CCCCN)C(=O)O)C(C)C)C(C)C [Peptide C2-V2D, (CH3—CO—NH—RGRKVVRR)2KK] (I: Ac-RGRKVVRRKK-OH / II: Ac-RGRKVVRR; amide I:9-II:C) | 5.26 (≈ 12.5 µg/mL) | 5.26 (≈ 12.5 µg/mL) | 5.26 (≈ 12.5 µg/mL) | 2.63 (≈ 6.25 µg/mL) | >2000 | 2.63 (≈ 6.25 µg/mL)
3 | CCCC(=O)N[C@@H](CCCNC(=N)N)C(=O)NCC(=O)N[C@@H](CCCNC(=N)N)C(=O)N[C@@H](CCCCN)C(=O)NCC(=O)NCC(=O)N[C@@H](CCCNC(=N)N)C(=O)N[C@@H](CCCNC(=N)N)C(=O)NCCCC[C@H](NC(=O)[C@H](CCCNC(=N)N)NC(=O)[C@H](CCCNC(=N)N)NC(=O)CNC(=O)CNC(=O)[C@H](CCCCN)NC(=O)[C@H](CCCNC(=N)N)NC(=O)CNC(=O)[C@H](CCCNC(=N)N)NC(=O)CCC)C(=O)N[C@@H](CCCCN)C(=O)O [Peptide C4-G2D, (C3H7—CO—NH—RGRKGGRR)2KK] (I: Butyryl-RGRKGGRRKK-OH / II: Butyryl-RGRKGGRR; amide I:9-II:C; N-terminus and C-terminus assumed) | 5.52 (≈ 12.5 µg/mL) | 2.76 (≈ 6.25 µg/mL) | 5.39 (≈ 12.2 µg/mL) | 5.52 (≈ 12.5 µg/mL) |  | 
4 | CCCC(=O)N[C@@H](CCCNC(=N)N)C(=O)NCC(=O)N[C@@H](CCCNC(=N)N)C(=O)N[C@@H](CCCCN)C(=O)N[C@H](C(=O)N[C@H](C(=O)N[C@@H](CCCNC(=N)N)C(=O)N[C@@H](CCCNC(=N)N)C(=O)NCCCC[C@H](NC(=O)[C@H](CCCNC(=N)N)NC(=O)[C@H](CCCNC(=N)N)NC(=O)[C@@H](NC(=O)[C@@H](NC(=O)[C@H](CCCCN)NC(=O)[C@H](CCCNC(=N)N)NC(=O)CNC(=O)[C@H](CCCNC(=N)N)NC(=O)CCC)C(C)C)C(C)C)C(=O)N[C@@H](CCCCN)C(=O)O)C(C)C)C(C)C [Peptide C4-V2D, (C3H7—CO—NH—RGRKVVRR)2KK] (I: Butyryl-RGRKVVRRKK-OH / II: Butyryl-RGRKVVRR; amide I:9-II:C) | 5.14 (≈ 12.5 µg/mL) | 10.28 (≈ 25 µg/mL) | 2.57 (≈ 6.25 µg/mL) | 2.57 (≈ 6.25 µg/mL) | >2000 | 2.57 (≈ 6.25 µg/mL)

The next lines start with the values.

Row | MIC [1] [µM] | MIC (Pseudomonas aeruginosa) [µM] | MIC (Staphylococcus aureus) [µM] | MIC [2] [µM] | HC10 [3] [µg/mL] | MIC [4] [µM] | Structure (SMILES)
5 | 2.70 (≈ 6.26 µg/mL) | 5.39 (≈ 12.5 µg/mL) | 5.26 (≈ 12.2 µg/mL) | 2.70 (≈ 6.26 µg/mL) |  |  | CCCCCC(=O)N[C@@H](CCCNC(=N)N)C(=O)NCC(=O)N[C@@H](CCCNC(=N)N)C(=O)N[C@@H](CCCCN)C(=O)NCC(=O)NCC(=O)N[C@@H](CCCNC(=N)N)C(=O)N[C@@H](CCCNC(=N)N)C(=O)NCCCC[C@H](NC(=O)[C@H](CCCNC(=N)N)NC(=O)[C@H](CCCNC(=N)N)NC(=O)CNC(=O)CNC(=O)[C@H](CCCCN)NC(=O)[C@H](CCCNC(=N)N)NC(=O)CNC(=O)[C@H](CCCNC(=N)N)NC(=O)CCCCC)C(=O)N[C@@H](CCCCN)C(=O)O [Peptide C6-G2D, (C5H11—CO—NH—RGRKGGRR)2KK] (I: Hexanoyl-RGRKGGRRKK-OH / II: Hexanoyl-RGRKGGRR; amide I:9-II:C; N-terminus and C-terminus assumed)
6 | 2.63 (≈ 6.25 µg/mL) | 2.63 (≈ 6.25 µg/mL) | 2.57 (≈ 6.1 µg/mL) | 2.63 (≈ 6.25 µg/mL) |  |  | CCCCCCCC(=O)N[C@@H](CCCNC(=N)N)C(=O)NCC(=O)N[C@@H](CCCNC(=N)N)C(=O)N[C@@H](CCCCN)C(=O)NCC(=O)NCC(=O)N[C@@H](CCCNC(=N)N)C(=O)N[C@@H](CCCNC(=N)N)C(=O)NCCCC[C@H](NC(=O)[C@H](CCCNC(=N)N)NC(=O)[C@H](CCCNC(=N)N)NC(=O)CNC(=O)CNC(=O)[C@H](CCCCN)NC(=O)[C@H](CCCNC(=N)N)NC(=O)CNC(=O)[C@H](CCCNC(=N)N)NC(=O)CCCCCCC)C(=O)N[C@@H](CCCCN)C(=O)O [Peptide C8-G2D, (C7H15—CO—NH—RGRKGGRR)2KK] (I: Octanoyl-RGRKGGRRKK-OH / II: Octanoyl-RGRKGGRR; amide I:9-II:C; N-terminus and C-terminus assumed)
7 | 2.57 (≈ 6.25 µg/mL) | 2.57 (≈ 6.25 µg/mL) | 2.51 (≈ 6.1 µg/mL) | 2.57 (≈ 6.25 µg/mL) |  |  | CCCCCCCCCC(=O)N[C@@H](CCCNC(=N)N)C(=O)NCC(=O)N[C@@H](CCCNC(=N)N)C(=O)N[C@@H](CCCCN)C(=O)NCC(=O)NCC(=O)N[C@@H](CCCNC(=N)N)C(=O)N[C@@H](CCCNC(=N)N)C(=O)NCCCC[C@H](NC(=O)[C@H](CCCNC(=N)N)NC(=O)[C@H](CCCNC(=N)N)NC(=O)CNC(=O)CNC(=O)[C@H](CCCCN)NC(=O)[C@H](CCCNC(=N)N)NC(=O)CNC(=O)[C@H](CCCNC(=N)N)NC(=O)CCCCCCCCC)C(=O)N[C@@H](CCCCN)C(=O)O [Peptide C10-G2D, (C9H19—CO—NH—RGRKGGRR)2KK] (I: Decanoyl-RGRKGGRRKK-OH / II: Decanoyl-RGRKGGRR; amide I:9-II:C; N-terminus and C-terminus assumed)
8 | 40.21 (≈ 100 µg/mL) | >40.21 | >40.21 | 40.21 (≈ 100 µg/mL) |  |  | CCCCCCCCCCCC(=O)N[C@@H](CCCNC(=N)N)C(=O)NCC(=O)N[C@@H](CCCNC(=N)N)C(=O)N[C@@H](CCCCN)C(=O)NCC(=O)NCC(=O)N[C@@H](CCCNC(=N)N)C(=O)N[C@@H](CCCNC(=N)N)C(=O)NCCCC[C@H](NC(=O)[C@H](CCCNC(=N)N)NC(=O)[C@H](CCCNC(=N)N)NC(=O)CNC(=O)CNC(=O)[C@H](CCCCN)NC(=O)[C@H](CCCNC(=N)N)NC(=O)CNC(=O)[C@H](CCCNC(=N)N)NC(=O)CCCCCCCCCCC)C(=O)N[C@@H](CCCCN)C(=O)O [Peptide C12-G2D, (C11H23—CO—NH—RGRKGGRR)2KK] (I: Lauroyl-RGRKGGRRKK-OH / II: Lauroyl-RGRKGGRR; amide I:9-II:C; N-terminus and C-terminus assumed)
